Data: paper PMC5548701, “Selective targeting of melanoma using N-(2-diethylaminoethyl) 4-[^18F]fluoroethoxy benzamide (4-[^18F]FEBZA): a novel PET imaging probe” (EJNMMI Research, 2017)
Entries after “also recorded” stand apart in the source; their conditions may differ.

Experiments:
[1] = test system: B16F1 cells; assay: internalization assay (acid wash); type: cell-based, murine; settings: 37 °C
Experimental: Next, we evaluated the binding characteristics of 4-[^18F]FEBZA to B16F1 cells through internalization experiments. The cells were treated with a low pH buffer to sequester membrane-bound radioactivity (acid wash-releasable) from the internalized (acid wash-resistant) fraction. For this assay, 4-[^18F]FEBZA was added to 12-well plates with each well containing 4 × 10^5 B16F1cells/well (in quadruplicate), and the plates were incubated at 37 °C for 15, 30, 60, 120, and 180 min. After the incubation, the media were removed, each well was washed with ice-cold PBS (2 × 1 mL), and the washes were collected in the tubes. Subsequently, each well was gently treated with 1 mL of an ice-cold mildly acidic medium (sodium acetate buffer, pH 4.5) to remove surface-bound radioactivity, and the rinses were collected in tubes (acidic wash). The adherent cells were then lysed using 500 μL of 10% Triton X-100 in PBS, and the lysate was transferred into tubes. The total radioactivity in each of the lysate, acidic wash, and the PBS wash was measured using a γ-counter.

[2] = test system: HT-29 human colorectal adenocarcinoma tumor xenografts; assay: biodistribution in mice bearing HT-29 tumor xenografts; type: in vivo, athymic nu/nu mice; settings: for tumor-to-brain tissue ratio: HT-29 group; for Adrenals %IA/g tissue (mean ± SD) / Blood %IA/g tissue (mean ± SD) / Bone %IA/g tissue (mean ± SD) / Brain %IA/g tissue (mean ± SD) / Heart %IA/g tissue (mean ± SD) / Kidneys %IA/g tissue (mean ± SD) / Liver %IA/g tissue (mean ± SD) / Lung %IA/g tissue (mean ± SD) / Muscles %IA/g tissue (mean ± SD) / Pancreas %IA/g tissue (mean ± SD) / Sm. Intestine %IA/g tissue (mean ± SD) / Spleen %IA/g tissue (mean ± SD): HT-29 tumor mice; for Tumor %IA/g tissue (mean ± SD): HT-29 tumor
Experimental: B16F1 melanoma cells, HT-29 human colorectal adenocarcinoma cells, and C-32 amelanotic melanoma cells were purchased from the American Type Culture Collection (ATCC, Rockville, MD). B16F1 murine melanotic melanoma cells were maintained in Dulbecco’s modified Eagles medium supplemented with 10% fetal calf-serum, 2 mM L-glutamine, and 1 mM pyruvate. HT-29 and C-32 cells were maintained in RPMI supplemented with 10% fetal calf serum and 2 mM L-glutamine. C57BL/6 and athymic nu/nu mice were purchased from Charles River Laboratories (Charles River Laboratories, Boston, MA). All animal studies were performed using an IACUC-approved protocol, and the work was performed under the guidelines established by Wake Forest University. The cells were grown to confluency, harvested, washed with phosphate-buffered saline and then were suspended in a 1:1 mixture of phosphate-buffered saline and Matrigel (BD Life Sciences, San Jose, CA) at a concentration of 5 × 10^6 cells/mL. For subcutaneous tumor xenografts, […] in the right flank with 100 μL of a suspension of B16F1 cells, and female athymic nu/nu mice were injected in the right flank with 100 μL of HT-29 cells or C-32 cells.
(§1) The biodistribution studies were performed in mice bearing B16F1 (1 h n = 5; 2 h n = 6), C-32 (1 h n = 3; 2 h n = 3), and HT-29 (1 h n = 3; 2 h n = 3) tumor xenografts. The tumor-bearing mice were injected with ~40 μCi of 4-[^18F]FEBZA. A separate group of normal C57BL/6 mice with no tumor implants (1 h n = 3; 2 h n = 3) was also injected with ~40 μCi of 4-[^18F]FEBZA to study the distribution characteristics of 4-[^18F]FEBZA in the absence of tumors. At 1 h and 2 h post-injection, the mice were euthanized, and the tissues of interest were removed, rinsed with PBS, weighed, and counted for radioactivity contents using a γ-counter.

[3] = biodistribution in normal mice with no tumor implants; type: in vivo, C57BL/6 mice; settings: 1 h
Experimental: as §1

[4] = test system: HT-29 tumor; assay: microPET imaging in mouse bearing HT-29 tumor; type: in vivo, mice
Experimental: In vivo imaging of 4-[^18F]FEBZA in mice bearing B16F1 (n = 2) and HT-29 (n = 1) tumor was performed using a P4 microPET™ scanner (Concorde Microsystems, Inc., Knoxville, TN). After administering ~100 μCi of 4-[^18F]FEBZA via tail-vein injection, whole body PET scans were acquired in list mode. The images were reconstructed using filtered back projection with attenuation correction. Regions Of Interest (ROIs) were drawn on select organs using the summed image from the entire scan acquisition session, and the data were analyzed using ASIPro software (Siemens Preclinical Solutions, Knoxville, TN). The time activity curves (TACs) were generated from the list mode data reconstructed into multiple 5-min frames.

tumor-to-brain tissue ratio ([2]; 1 h): 2.19 ± 0.04
tumor-to-brain tissue ratio ([2]; 2 h): 2.04 ± 0.19
tumor-to-muscle ratio ([2]; HT-29 mice group, 2 h): 2.21 ± 0.17
Adrenals %IA/g tissue (mean ± SD) ([2]; 1 h post-injection): 1.07 ± 0.08 %IA/g tissue
Blood %IA/g tissue (mean ± SD) ([2]; 1 h post-injection): 2.80 ± 0.26 %IA/g tissue
Bone %IA/g tissue (mean ± SD) ([2]; 1 h post-injection): 3.83 ± 0.39 %IA/g tissue
Brain %IA/g tissue (mean ± SD) ([2]; 1 h post-injection): 1.68 ± 0.18 %IA/g tissue
Heart %IA/g tissue (mean ± SD) ([2]; 1 h post-injection): 2.52 ± 0.12 %IA/g tissue
Kidneys %IA/g tissue (mean ± SD) ([2]; 1 h post-injection): 2.91 ± 0.24 %IA/g tissue
Liver %IA/g tissue (mean ± SD) ([2]; 1 h post-injection): 4.84 ± 0.95 %IA/g tissue
Lung %IA/g tissue (mean ± SD) ([2]; 1 h post-injection): 2.19 ± 0.33 %IA/g tissue
Muscles %IA/g tissue (mean ± SD) ([2]; 1 h post-injection): 1.61 ± 0.28 %IA/g tissue
Pancreas %IA/g tissue (mean ± SD) ([2]; 1 h post-injection): 2.41 ± 0.26 %IA/g tissue
Sm. Intestine %IA/g tissue (mean ± SD) ([2]; 1 h post-injection): 1.98 ± 0.62 %IA/g tissue
Spleen %IA/g tissue (mean ± SD) ([2]; 1 h post-injection): 2.11 ± 0.25 %IA/g tissue
Adrenals %IA/g tissue (mean ± SD) ([2]; 2 h post-injection): 0.91 ± 0.19 %IA/g tissue
Blood %IA/g tissue (mean ± SD) ([2]; 2 h post-injection): 2.29 ± 0.23 %IA/g tissue
Bone %IA/g tissue (mean ± SD) ([2]; 2 h post-injection): 5.71 ± 1.11 %IA/g tissue
Brain %IA/g tissue (mean ± SD) ([2]; 2 h post-injection): 1.52 ± 0.28 %IA/g tissue
Heart %IA/g tissue (mean ± SD) ([2]; 2 h post-injection): 2.19 ± 0.37 %IA/g tissue
Kidneys %IA/g tissue (mean ± SD) ([2]; 2 h post-injection): 2.08 ± 0.29 %IA/g tissue
Liver %IA/g tissue (mean ± SD) ([2]; 2 h post-injection): 2.50 ± 0.29 %IA/g tissue
Lung %IA/g tissue (mean ± SD) ([2]; 2 h post-injection): 1.63 ± 0.16 %IA/g tissue
Muscles %IA/g tissue (mean ± SD) ([2]; 2 h post-injection): 1.40 ± 0.24 %IA/g tissue
Pancreas %IA/g tissue (mean ± SD) ([2]; 2 h post-injection): 1.56 ± 0.18 %IA/g tissue
Sm. Intestine %IA/g tissue (mean ± SD) ([2]; 2 h post-injection): 1.42 ± 0.10 %IA/g tissue
Spleen %IA/g tissue (mean ± SD) ([2]; 2 h post-injection): 1.51 ± 0.12 %IA/g tissue
Tumor %IA/g tissue (mean ± SD) ([2]; 1 h post-injection): 3.68 ± 0.47 %IA/g tissue
Tumor %IA/g tissue (mean ± SD) ([2]; 2 h post-injection): 3.07 ± 0.36 %IA/g tissue
bone uptake ([3]; mice with no tumor): 3.23 ± 0.24 %IA/g
blood uptake ([3]; mice without implanted tumor): 2.81 ± 0.31 %IA/g
brain uptake ([3]; mice without implanted tumor): 2.46 ± 0.41 %IA/g
liver uptake ([3]; mice without implanted tumor): 4.11 ± 0.63 %IA/g
lungs uptake ([3]; mice without implanted tumor): 2.52 ± 0.47 %IA/g
muscle uptake ([3]; mice without implanted tumor): 1.10 ± 0.13 %IA/g
standardized uptake value (SUV) of tumor from microPET images [4]: 0.25 ± 0.04
SMILES: CCN(CC)CCNC(=O)c1ccc(OCC[18F])cc1 [4-[^18F]FEBZA, N-(2-diethylaminoethyl) 4-[^18F]fluoroethoxybenzamide]
internalized fraction of cell-associated radioactivity [1]: Majority of the cell-associated radioactivity is internalized
time at which internalized fraction reached plateau [1]: about 120 min
cell surface bound fraction ([1]; all time points (15-180 min)): < 1%
visibility of tumor on microPET scans [4]: not visible; also recorded: not discernable
